Reference: patent publication US20250145596A1, “HETEROCYCLIC GLP-1 AGONISTS” (Gasherbrum Bio, Inc., priority 2022, published 2025)

Target: T1, GLP-1 Receptor (Homo sapiens, UniProt P43220)
T1 construct: host or cells: HEK293/CRE-Luc
Assay: GLP-1R agonist cAMP stimulation assay
Assay type: cell-based
Settings: HEK293/CRE-Luc cell line stably expressing the GLP-1 Receptor; 30 min at 37° C.; cAMP dynamic 2 Kit
Procedure: Activation of GLP-1 receptor is known to stimulate cyclic AMP (cAMP) production in cells which indicates primary coupling to the Gas subunit of the G protein heterotrimeric complex.
To optimize functional activity directed toward Gas coupling, a HEK293/CRE-Luc cell line developed by HDB stably expressing the GLP-1 Receptor was used. 200× concentration of compound working solutions were prepared (Agilent Technologies Bravo) with ½ log serial dilution in 384-well Echo LDV plate (Labcyte, Cat #LP-0200). 50 nL/well 200× concentration of compound working solutions were moved to 384-well white low volume plate (Greiner, Cat #784075) using Labcyte ECHO550. 1×10^5 cells/mL HEK293/GLPlR/CRE-LUC (HD Biosciences) cell suspensions prepared with assay buffer [DPBS containing 0.5 mM IBMX (Sigma, Cat #15879) and 0.1% BSA (GENVIEW, Cat #FA016-100g)], 10 μL cell suspensions were added to each well of previous generated assay plate which already contains 50 nL compound at 200× concentration using ThermoFisher Multidrop Combi (1000 cells/well). Seal the plate and incubate at 37° C. with 5% CO2 for 30 min.
After incubation the cAMP assay signal was generated using cAMP dynamic 2 Kit (Cisbio). 5 μL cAMP-d2 working solution was added to each well, followed with 5 μL Anti-cAMP antibody-cryptate working solution added to each well using ThermoFisher Multidrop Combi. Incubate at room temperature for 1 hour protected from light. Read the fluorescence at 665 and 615 nm with Reader PerkinElmer EnVision.
% Activity=100%×(mean RLU of test sample mean RLU of vehicle control)/(mean RLU of MAX control−mean RLU of vehicle control))

T1 sequence (P43220 24-463): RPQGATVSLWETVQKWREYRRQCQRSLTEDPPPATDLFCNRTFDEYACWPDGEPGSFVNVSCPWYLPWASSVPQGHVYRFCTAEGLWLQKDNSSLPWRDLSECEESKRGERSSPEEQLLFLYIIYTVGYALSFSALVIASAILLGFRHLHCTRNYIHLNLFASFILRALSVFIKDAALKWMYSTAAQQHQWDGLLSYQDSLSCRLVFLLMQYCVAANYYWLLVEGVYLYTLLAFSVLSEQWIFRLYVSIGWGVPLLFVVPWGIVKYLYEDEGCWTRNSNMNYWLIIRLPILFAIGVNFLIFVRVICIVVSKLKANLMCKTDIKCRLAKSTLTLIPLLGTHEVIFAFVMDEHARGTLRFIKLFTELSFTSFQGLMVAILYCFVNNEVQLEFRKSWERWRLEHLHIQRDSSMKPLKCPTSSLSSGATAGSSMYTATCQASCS

Compound	EC50 [nM]
C[C@]1(c2ccc(Cl)cn2)Oc2cccc(C3CCN(Cc4ncc(-c5nnn[nH]5)cc4CC4(C#N)CC4)CC3)c2O1 [Example 75]	< 1
CN(C)C(=O)Cc1cc(-c2nnc(C(F)(F)F)[nH]2)cnc1CN1CCC(c2cccc3c2O[C@@](C)(c2ccc(Cl)cc2F)O3)CC1 [Example 56, (S)-2-(2-((4-(2-(4-chloro-2-fluorophenyl)-2-methylbenzo[d][1,3]dioxol-4-yl)piperidin-1-yl)methyl)-5-(5-(trifluoromethyl)-4H-1,2,4-triazol-3-yl)pyridin-3-yl)-N,N-dimethylacetamide]	1 to 100
CC1(c2ccc(Cl)cc2F)Oc2cccc(C3CCN(Cc4ncc(-c5nnc(C(F)(F)F)[nH]5)cc4CC4(C#N)CC4)CC3(F)F)c2O1 (stereo not drawn) [Example 22, 1-{[2-({4-[2-(4-chloro-2-fluorophenyl)-2-methyl-2H-1,3-benzodioxol-4-yl]-3,3-difluoropiperidin-1-yl}methyl)-5-[5-(trifluoromethyl)-4H-1,2,4-triazol-3-yl]pyridin-3-yl]methyl}cyclopropane-1-carbonitrile]	< 1
C[C@]1(c2ccc(Cl)cc2F)Oc2cccc(C3CCN(Cc4ncc(-c5noc(=O)[nH]5)cc4CC4(C#N)CC4)CC3)c2O1 [Example 73]	< 1
Cc1cc(-c2nnc(C(F)(F)F)[nH]2)nnc1CN1CCC(c2cccc3c2O[C@@](C)(c2ccc(Cl)cc2F)O3)CC1 [Example 49, (S)-3-((4-(2-(4-chloro-2-fluorophenyl)-2-methylbenzo[d][1,3]dioxol-4-yl)piperidin-1-yl)methyl)-4-methyl-6-(5-(trifluoromethyl)-4H-1,2,4-triazol-3-yl)pyridazine]	1 to 100
Cc1cc(-c2noc(=O)[nH]2)nnc1CN1CCC(c2cccc3c2O[C@@](C)(c2ccc(Cl)cc2F)O3)CC1 [Example 51, (S)-3-(6-((4-(2-(4-chloro-2-fluorophenyl)-2-methylbenzo[d][1,3]dioxol-4-yl)piperidin-1-yl)methyl)-5-methylpyridazin-3-yl)-1,2,4-oxadiazol-5(4H)-one]	1 to 100
N#CC1(Cc2cc(-c3nnc(C(F)(F)F)[nH]3)cnc2CN2CCN(c3ccnc(OCc4ccc(Cl)cc4F)n3)CC2)CC1 [Example 83]	1 to 100
Cc1cc(-c2cnn(C)c2)cnc1CN1CCC(c2cccc(OCc3ccc(Cl)cc3F)n2)CC1 [Example 99]	> 100
N#CC1(Cc2cc(-c3nnc(C(F)(F)F)[nH]3)cnc2CN2CCC(c3ncc(F)c(OCc4ccc(Cl)cc4F)n3)CC2)CC1 [Example 36, 1-((2-((4-(4-((4-chloro-2-fluorobenzyl)oxy)-5-fluoropyrimidin-2-yl)piperidin-1-yl)methyl)-5-(5-(trifluoromethyl)-4H-1,2,4-triazol-3-yl)pyridin-3-yl)methyl)cyclopropane-1-carbonitrile]	< 1
C[C@]1(c2ccc(Cl)cc2F)Oc2cccc(C3CCN(Cc4ncc(-c5noc(=O)[nH]5)cc4CS(C)(=O)=O)CC3)c2O1 [Example 58, 3-[6-({4-[(2S)-2-(4-chloro-2-fluorophenyl)-2-methyl-2H-1,3-benzodioxol-4-yl]piperidin-1-yl}methyl)-5-(methanesulfonylmethyl)pyridin-3-yl]-2,5-dihydro-1,2,4-oxadiazol-5-one]	< 1
C[C@]1(c2ccc(Cl)cc2F)Oc2cccc(C3CCN(Cc4ncc(-c5nnc(C(F)(F)F)[nH]5)cc4CC4CCOC4)CC3)c2O1 (stereo partly drawn) [Example 79]	1 to 100
C[C@]1(c2ccc(Cl)cc2F)Oc2cccc(C3CCN(Cc4ncc(-c5nnc(C(F)(F)F)[nH]5)cc4CS(C)(=O)=O)CC3)c2O1 [Example 55, 2-({4-[(2S)-2-(4-chloro-2-fluorophenyl)-2-methyl-2H-1,3-benzodioxol-4-yl]piperidin-1-yl}methyl)-3-(methanesulfonylmethyl)-5-[5-(trifluoromethyl)-4H-1,2,4-triazol-3-yl]pyridine]	< 1
C[C@]1(c2ccc(Cl)cc2F)Oc2cccc(C3CCN(Cc4ncc(-c5nnc(C(F)(F)F)[nH]5)cc4C#N)CC3)c2O1 [Example 93]	1 to 100

Other lines, results leading:

EC50 [nM]	Compound
< 1	CC1(c2ccc(Cl)cc2F)Oc2cc(F)cc(C3CCN(Cc4ncc(-c5nnc(C(F)(F)F)[nH]5)cc4CC4(C#N)CC4)CC3)c2O1 (single isomer, unassigned) [Example 14, 1-{[2-({4-[2-(4-chloro-2-fluorophenyl)-6-fluoro-2-methyl-2H-1,3-benzodioxol-4-yl]piperidin-1-yl}methyl)-5-[5-(trifluoromethyl)-4H-1,2,4-triazol-3-yl]pyridin-3-yl]methyl}cyclopropane-1-carbonitrile]
< 1	CC1(c2ccc(Cl)cc2F)Oc2cccc(C3CCN(Cc4ncc(-c5nnc(C(F)(F)F)[nH]5)cc4CC4(C#N)CC4)CC3O)c2O1 (single isomer, unassigned) [Example 24, 1-[(2-{[(3,4-trans)-4-[2-(4-chloro-2-fluorophenyl)-2-methyl-2H-1,3-benzodioxol-4-yl]-3-hydroxypiperidin-1-yl]methyl}-5-[5-(trifluoromethyl)-4H-1,2,4-triazol-3-yl]pyridin-3-yl)methyl]cyclopropane-1-carbonitrile]
< 1	CC1(c2ccc(Cl)cc2Cl)Oc2cccc(C3CCN(Cc4ncc(-c5nnc(C(F)(F)F)[nH]5)cc4CC4(C#N)CC4)CC3)c2O1 (single isomer, unassigned) [Example 3, 1-{[2-({4-[2-(2,4-dichlorophenyl)-2-methyl-2H-1,3-benzodioxol-4-yl]piperidin-1-yl}methyl)-5-[5-(trifluoromethyl)-4H-1,2,4-triazol-3-yl]pyridin-3-yl]methyl}cyclopropane-1-carbonitrile]
1 to 100	N#CC1(Cc2cc(-c3nnc(C(F)(F)F)[nH]3)cnc2CN2CCC(c3cccc4c3OC[C@@H](c3ccc(Cl)cc3)O4)CC2)CC1 [Example 39, 1-{[2-({4-[(2R)-2-(4-chlorophenyl)-2,3-dihydro-1,4-benzodioxin-5-yl]piperidin-1-yl}methyl)-5-[5-(trifluoromethyl)-4H-1,2,4-triazol-3-yl]pyridin-3-yl]methyl}cyclopropane-1-carbonitrile]
< 1	C[C@]1(c2ccc(Cl)cc2F)Oc2cccc(C3CCN(Cc4ncc(-c5nnc(C(F)(F)F)[nH]5)cc4CC4(C#N)CC4)CC3F)c2O1 (single isomer, unassigned) [Example 28]
< 1	CC1(c2ccc(Cl)cc2F)Oc2c(F)ccc(C3CCN(Cc4ncc(-c5nnc(C(F)(F)F)[nH]5)cc4CC4(C#N)CC4)CC3)c2O1 (stereo not drawn) [Example 12, 1-{[2-({4-[2-(4-chloro-2-fluorophenyl)-7-fluoro-2-methyl-2H-1,3-benzodioxol-4-yl]piperidin-1-yl}methyl)-5-[5-(trifluoromethyl)-4H-1,2,4-triazol-3-yl]pyridin-3-yl]methyl}cyclopropane-1-carbonitrile]
1 to 100	CC1(c2ccc(Cl)cc2F)Oc2cccc(C3CCN(Cc4ncc(-c5nnc(C(F)(F)F)[nH]5)cc4CC4(C#N)CC4)CC3O)c2O1 (single isomer, unassigned) [Example 23, 1-[(2-{[(3,4-trans)-4-[2-(4-chloro-2-fluorophenyl)-2-methyl-2H-1,3-benzodioxol-4-yl]-3-hydroxypiperidin-1-yl]methyl}-5-[5-(trifluoromethyl)-4H-1,2,4-triazol-3-yl]pyridin-3-yl)methyl]cyclopropane-1-carbonitrile]
< 1	Cc1cc(Cl)ccc1C1(C)Oc2cccc(C3CCN(Cc4ncc(-c5nnc(C(F)(F)F)[nH]5)cc4CC4(C#N)CC4)CC3)c2O1 (stereo not drawn) [Example 7, 1-((2-((4-(2-(4-chloro-2-methylphenyl)-2-methylbenzo[d][1,3]dioxol-4-yl)piperidin-1-yl)methyl)-5-(5-(trifluoromethyl)-4H-1,2,4-triazol-3-yl)pyridin-3-yl)methyl)cyclopropane-1-carbonitrile]
< 1	CC1(c2ccc(C(F)(F)F)cc2F)Oc2cccc(C3CCN(Cc4ncc(-c5nnc(C(F)(F)F)[nH]5)cc4CC4(C#N)CC4)CC3)c2O1 (stereo not drawn) [Example 8, 1-((2-((4-(2-(2-fluoro-4-(trifluoromethyl)phenyl)-2-methylbenzo[d][1,3]dioxol-4-yl)piperidin-1-yl)methyl)-5-(5-(trifluoromethyl)-4H-1,2,4-triazol-3-yl)pyridin-3-yl)methyl)cyclopropane-1-carbonitrile]
1 to 100	COCC1(Cc2cc(-c3nnc(C(F)(F)F)[nH]3)cnc2CN2CCC(c3cccc4c3OC(C)(c3ccc(Cl)cn3)O4)CC2)CC1 (stereo not drawn) [Example 85]
1 to 100	COC1(Cc2cc(-c3nnc(C(F)(F)F)[nH]3)cnc2CN2CCC(c3cccc4c3O[C@@](C)(c3ccc(Cl)cc3F)O4)CC2)CC1 [Example 53, 2-({4-[(2S)-2-(4-chloro-2-fluorophenyl)-2-methyl-2H-1,3-benzodioxol-4-yl]piperidin-1-yl}methyl)-3-[(1-methoxycyclopropyl)methyl]-5-[5-(trifluoromethyl)-4H-1,2,4-triazol-3-yl]pyridine]
